This test addresses T1, STK38 (NDR) (Homo sapiens, UniProt Q15208).
T1 construct: purchased Thermo Fisher Scientific (Life Technologies) SelectScreen
As to the kind of experiment: SelectScreen LanthaScreen. The format is binding. As to conditions: read-out: % displacement. In outline: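 NU5455 was profiled across the SelectScreen Broad panel of kinase activity and binding assays. Z'LYTE reactions such as CSF1R ran at apparent Km ATP, while the Adapta CAMK1 assay used ATP listed as 10. Values are given as percent.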

Each structure is given as a SMILES string.

T1 sequence (Q15208 whole entry): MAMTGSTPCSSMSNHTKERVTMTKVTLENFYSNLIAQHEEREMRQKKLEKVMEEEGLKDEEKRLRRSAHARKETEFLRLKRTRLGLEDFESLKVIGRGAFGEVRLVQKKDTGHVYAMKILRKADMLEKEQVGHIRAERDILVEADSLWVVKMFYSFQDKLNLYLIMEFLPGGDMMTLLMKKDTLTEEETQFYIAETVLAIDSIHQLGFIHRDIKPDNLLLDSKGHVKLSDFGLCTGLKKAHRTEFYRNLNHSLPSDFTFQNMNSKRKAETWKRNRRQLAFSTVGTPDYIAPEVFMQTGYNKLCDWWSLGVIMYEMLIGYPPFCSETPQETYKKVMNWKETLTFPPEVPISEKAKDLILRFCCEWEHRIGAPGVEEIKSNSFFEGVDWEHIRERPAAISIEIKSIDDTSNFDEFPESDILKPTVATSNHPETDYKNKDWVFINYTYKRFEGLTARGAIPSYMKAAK

As for `CN(C(=O)CN1CCOCC1)c1ccc2sc3c(-c4cccc5c(=O)cc(N6CC7CCC(C6)O7)oc45)cccc3c2c1` [NU5455], the inhibition at 1 µM is -5.9%.

The values above are taken from paper PMC6934184, “Selective DNA-PKcs inhibition extends the therapeutic index of localized radiotherapy and chemotherapy” (The Journal of Clinical Investigation, 2019).
